Measured values as given in patent publication US20250257060A1, “OXADIAZOLE COMPOUND, PHARMACEUTICAL COMPOSITION COMPRISING SAME, AND USE THEREOF” (SUZHOU GENHOUSE BIO CO., LTD., priority 2022, published 2025).
pIC50: −log10 of the molar value. Like-named read-outs stand apart in the source and are kept apart here. Values belong to the compound of their own block, whether it stands above or below them.

Experiments:
HDAC6 = HDAC6 (Homo sapiens (Human), UniProt Q9UBN7); experiment: HDAC6 enzymatic activity assay; format: biochemical
Chain of HDAC6 (Q9UBN7 whole entry): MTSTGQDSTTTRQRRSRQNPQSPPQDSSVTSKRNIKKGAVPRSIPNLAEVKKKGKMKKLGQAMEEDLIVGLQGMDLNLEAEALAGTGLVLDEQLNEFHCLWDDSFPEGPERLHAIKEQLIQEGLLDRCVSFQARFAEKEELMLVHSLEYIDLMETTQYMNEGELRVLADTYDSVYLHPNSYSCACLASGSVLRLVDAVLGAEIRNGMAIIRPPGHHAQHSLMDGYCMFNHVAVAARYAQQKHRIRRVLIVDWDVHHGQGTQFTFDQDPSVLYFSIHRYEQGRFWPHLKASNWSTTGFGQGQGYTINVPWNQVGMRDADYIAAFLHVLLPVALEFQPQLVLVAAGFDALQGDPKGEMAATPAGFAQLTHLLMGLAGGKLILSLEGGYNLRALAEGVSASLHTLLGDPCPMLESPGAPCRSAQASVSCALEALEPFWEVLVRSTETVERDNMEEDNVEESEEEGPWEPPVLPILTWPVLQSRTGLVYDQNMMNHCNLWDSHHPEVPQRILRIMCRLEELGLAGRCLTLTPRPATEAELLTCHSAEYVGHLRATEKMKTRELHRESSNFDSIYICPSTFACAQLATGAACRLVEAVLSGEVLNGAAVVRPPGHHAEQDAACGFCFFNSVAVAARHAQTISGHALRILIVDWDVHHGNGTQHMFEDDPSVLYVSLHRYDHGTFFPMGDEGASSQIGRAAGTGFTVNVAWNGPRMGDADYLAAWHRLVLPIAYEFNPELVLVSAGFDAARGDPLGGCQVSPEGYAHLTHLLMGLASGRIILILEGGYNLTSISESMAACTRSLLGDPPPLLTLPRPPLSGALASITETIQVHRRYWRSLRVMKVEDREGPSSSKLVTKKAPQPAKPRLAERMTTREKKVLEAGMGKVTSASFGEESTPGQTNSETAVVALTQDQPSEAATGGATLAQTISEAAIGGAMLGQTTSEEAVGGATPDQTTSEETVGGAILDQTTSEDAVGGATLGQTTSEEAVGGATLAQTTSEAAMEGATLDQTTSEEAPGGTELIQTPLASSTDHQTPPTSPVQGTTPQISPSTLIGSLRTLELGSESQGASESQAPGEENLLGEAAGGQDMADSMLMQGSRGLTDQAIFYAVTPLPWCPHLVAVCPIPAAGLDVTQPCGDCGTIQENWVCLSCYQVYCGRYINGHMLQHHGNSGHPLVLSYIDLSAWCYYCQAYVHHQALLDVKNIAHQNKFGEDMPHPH
Method: The inhibitory activity of the compounds of the present application against HDAC6 was evaluated by an enzymatic activity assay. HDAC6 (Abcam), test compounds, and a 20 µM substrate solution (Ac-GAK(Ac)-AMC) were each added to a 384-well plate, and the plate was incubated at 37° C. for 30 min. […] and […] were added, and the plate was incubated at room temperature for 15 min. […] IC50 was obtained by fitting using GraphPadPrism 7.0 software.

[1] = Pharmacokinetic test in mice (IV and PO); format: in vivo, BALB/c mice; details: for Cmax / AUC(0-inf) / AUC(0-t) / MRT inf / Vd / Tmax: BALB/c, mouse, plasma; for MRT inf: read-out: MRT(0-∞); for Vd: read-out: Vz
Method: In this example, the pharmacokinetic behavior of the compounds after intravenous injection (IV) and intragastric (PO) administration in BALB/c mice was tested.
On the day of administration, mice were weighed for actual body weight and the administration volume was calculated. Each compound was tested in two groups with 3 mice in each group, one group administered by single intravenous injection and the other group of mice by single intragastric administration. Whole blood samples were collected via the orbit at prescribed time points (0.25 h, 0.5 h, 1 h, 2 h, 4 h, 8 h, and 24 h after administration). After blood sample collection, the samples were immediately transferred to labeled commercial sample tubes containing K2-EDTA (0.85-1.15 mg), followed by centrifugation (3200×g, 4° C., 10 min) and plasma collection. The plasma was transferred to a pre-cooled centrifuge tube, frozen in dry ice, and stored in an ultra-low temperature freezer at −60° C. or lower until the LC-MS/MS analysis.
Plasma concentrations were determined by a LC-MS/MS method. Plasma drug concentration data for compounds 1 and 2 were processed in a non-compartmental model using WinNonlin Version 6.3 (Pharsight, Mountain View, CA) pharmacokinetic software. The relevant pharmacokinetic parameters were calculated by a linear logarithmic trapezoid method.

[2] = Brain-to-blood drug concentration ratio of mice; format: in vivo; details: mouse, 5 mg/kg PO
Method: On the day of administration, mice were weighed for actual body weight and the administration volume was calculated. In each group of 9 mice, the compound was administered by single intravenous (IV) injection or intragastric (PO) administration. Whole blood samples were collected via the orbit at prescribed time points. After blood sample collection, the samples were immediately transferred to labeled commercial sample tubes containing K2-EDTA (0.85-1.15 mg), followed by centrifugation (3200×g, 4° C., 10 min) and plasma collection. The plasma was transferred to a pre-cooled centrifuge tube, frozen in dry ice, and stored in an ultra-low temperature freezer at −60° C. or lower until the LC-MS/MS analysis. 20 μL of a plasma sample or brain tissue homogenate was taken and 80 μL of an internal standard solution (50 ng/mL solution of propafenone in acetonitrile) was added. The plate was sealed with a film sealer at 165° C., shaken on a micro oscillator (maximum vibration speed) for 10 min, and centrifuged at 4000 rpm for 20 min using a low-speed benchtop centrifuge, 10 μL of supernatant was transferred and 90 μL of acetonitrile was added. The mixture was vortexed and mixed well, and then the plate was sealed with the film sealer at 165° C. After the mixture was vortexed and mixed well, 1 μL of supernatant was taken for LC-MS/MS analysis. Plasma drug concentration data for the compounds were processed in a non-compartmental model using WinNonlin Version 6.3 (Pharsight, Mountain View, CA) pharmacokinetic software. The relevant pharmacokinetic parameters were calculated by a linear logarithmic trapezoid method.
Data processing: brain-to-blood drug concentration ratio of mice at the same time point=drug concentration in brain tissue/drug concentration in plasma

[3] = brain, read-out: Brain drug concentration
[4] = plasma, read-out: Blood drug concentration

SMILES: O=S1(=O)c2cc(-c3nnc(C(F)F)o3)ccc2CN1[C@@H](c1ccccn1)[C@H](O)c1ccc(F)cn1 (single isomer, unassigned) [Compound 84j-A-A]
pIC50 (HDAC6): 6.68

SMILES: O=S1(=O)c2cc(-c3nnc(C(F)F)o3)ccc2CN1[C@@H](c1ccc(F)cn1)[C@H](O)c1ccc(F)cn1 (single isomer, unassigned) [Compound 88j-A-A]
pIC50 (HDAC6): 6.23

SMILES: O=S1(=O)c2cc(-c3nnc(C(F)F)o3)ccc2CN1[C@@H](c1ccc(F)cn1)[C@H](O)c1ccc(F)cn1 (single isomer, unassigned) [Compound 88j-B]
pIC50 (HDAC6): 6.18

SMILES: Cn1cc([C@@H](O)[C@H](c2cnn(C)c2)N2Cc3ccc(-c4nnc(C(F)F)o4)cc3S2(=O)=O)cn1 (single isomer, unassigned) [Compound 95j-A]
pIC50 (HDAC6): 6.64

SMILES: O=C(N[C@@H]1CCCC[C@H]1N1C(=O)c2ccc(-c3nnc(C(F)F)o3)cc2S1(=O)=O)C(F)F [Compound 6]
pIC50 (HDAC6): 6.40

SMILES: CC(C)(C)OC(=O)N[C@@H]1CCCC[C@H]1N1Cc2ccc(-c3nnc(C(F)F)o3)cc2S1(=O)=O [Compound 20]
pIC50 (HDAC6): 6.65

SMILES: O=S1(=O)c2cc(-c3nnc(C(F)F)o3)ccc2CN1[C@@H]1CCCC[C@H]1O [Compound 21]
pIC50 (HDAC6): 6.13

SMILES: CC(F)(F)C(=O)N[C@@H]1CCCC[C@H]1N1Cc2c(F)cc(-c3nnc(C(F)F)o3)cc2S1(=O)=O [Compound 39]
pIC50 (HDAC6): 6.58

SMILES: O=C(N[C@@H]1CCCC[C@H]1N1Cc2c(F)cc(-c3nnc(C(F)F)o3)cc2S1(=O)=O)C(F)F [Compound 40]
pIC50 (HDAC6): 6.60

SMILES: O=S1(=O)c2cc(-c3nnc(C(F)F)o3)ccc2CN1[C@@H]1COCC[C@H]1O [Compound 49]
pIC50 (HDAC6): 6.09

SMILES: O=S1(=O)c2cc(-c3nnc(C(F)F)o3)ccc2CN1Cc1cccc(Cl)c1 [Compound 60]
pIC50 (HDAC6): 6.31

SMILES: Cn1cc(-c2ccccc2N2Cc3ccc(-c4nnc(C(F)F)o4)cc3S2(=O)=O)cn1 [Compound 72]
pIC50 (HDAC6): 6.40

SMILES: Cn1cc([C@@H]([C@H](O)c2ccccc2)N2Cc3ccc(-c4nnc(C(F)F)o4)cc3S2(=O)=O)cn1 [Compound 80]
Cmax ([1]; po, 5 mg/kg, read-out: C0/Cmax): 7.17 µM
AUC(0-inf) ([1]; mice, IV 1 mg/kg): 5.28 µM·h
AUC(0-t) ([1]; mice, IV 1 mg/kg): 5.05 µM·h
Cmax ([1]; mice, IV 1 mg/kg (C0)): 1.91 µM
MRT inf ([1]; mice, IV 1 mg/kg): 2.6 h
Vd ([1]; mice, IV 1 mg/kg): 1 L/kg
AUC(0-inf) ([1]; mice, PO 5 mg/kg): 34 µM·h
AUC(0-t) ([1]; mice, PO 5 mg/kg): 25.5 µM·h
Tmax ([1]; mice, PO 5 mg/kg): 1 h
MRT inf ([1]; mice, PO 5 mg/kg): 5.6 h
CLz ([1]; mice, IV 1 mg/kg): 6.7 mL/min/kg
t½z ([1]; mice, IV 1 mg/kg): 1.8 h
F ([1]; mice, PO 5 mg/kg): 101.2%
t½z ([1]; mice, PO 5 mg/kg): 4.2 h
concentration at 2 h [2, 3]: 160 ng/mL
concentration at 8 h ([2]; brain, 8 h, read-out: Brain drug concentration): 72 ng/mL
Kp at 2 h ([2]; brain/plasma): 0.08
Kp at 8 h ([2]; brain/plasma, 8 h): 0.1
concentration at 2 h [2, 4]: 1910 ng/mL
concentration at 8 h ([2]; plasma, 8 h, read-out: Blood drug concentration): 695 ng/mL

SMILES: O=S1(=O)c2cc(-c3nnc(C(F)F)o3)ccc2CN1[C@H](c1ccccn1)[C@H](O)c1ccc(F)cn1 [Compound 87]
Cmax ([1]; po, 5 mg/kg, read-out: C0/Cmax): 5.75 µM
AUC(0-inf) ([1]; mice, IV 1 mg/kg): 1.77 µM·h
AUC(0-t) ([1]; mice, IV 1 mg/kg): 1.62 µM·h
Cmax ([1]; mice, IV 1 mg/kg (C0)): 1.89 µM
MRT inf ([1]; mice, IV 1 mg/kg): 0.8 h
Vd ([1]; mice, IV 1 mg/kg): 0.9 L/kg
AUC(0-inf) ([1]; mice, PO 5 mg/kg): 15.5 µM·h
AUC(0-t) ([1]; mice, PO 5 mg/kg): 15.1 µM·h
Tmax ([1]; mice, PO 5 mg/kg): 1 h
MRT inf ([1]; mice, PO 5 mg/kg): 2.3 h
CLz ([1]; mice, IV 1 mg/kg): 18.3 mL/min/kg
t½z ([1]; mice, IV 1 mg/kg): 0.6 h
F ([1]; mice, PO 5 mg/kg): 175.8%
t½z ([1]; mice, PO 5 mg/kg): 1.5 h
concentration at 2 h [2, 3]: 298 ng/mL
Kp at 2 h ([2]; brain/plasma): 0.28
concentration at 2 h [2, 4]: 1060 ng/mL

SMILES: O=S1(=O)c2cc(-c3nnc(C(F)F)o3)ccc2CN1[C@@H](c1ncccn1)[C@H](O)c1ncccn1 [Compound 103j-A]
pIC50 (HDAC6): 6.54

SMILES: O=S1(=O)c2cc(-c3nnc(C(F)F)o3)ccc2CN1[C@@H](c1ncccn1)[C@@H](O)c1ncccn1 [Compound 103j-C]
pIC50 (HDAC6): 6.65

SMILES: O=S1(=O)c2cc(-c3nnc(C(F)F)o3)ccc2CN1[C@H](c1ncccn1)[C@H](O)c1ncccn1 [Compound 103j-D]
pIC50 (HDAC6): 6.64

The remaining compounds from weak to strong by pIC50 (HDAC6), led by results:

pIC50 (HDAC6): 6.69
SMILES: O=S1(=O)c2cc(-c3nnc(C(F)F)o3)ccc2CN1[C@@H](c1cnccn1)[C@H](O)c1cnccn1 (single isomer, unassigned) [Compound 99j-A-A]

pIC50 (HDAC6): 6.69
SMILES: CNC(=O)N[C@@H]1CCCC[C@H]1N1Cc2ccc(-c3nnc(C(F)F)o3)cc2S1(=O)=O [Compound 94]

pIC50 (HDAC6): 6.71
SMILES: CS(=O)(=O)N[C@@H]1CCCC[C@H]1N1Cc2ccc(-c3nnc(C(F)F)o3)cc2S1(=O)=O [Compound 24]

pIC50 (HDAC6): 6.74
SMILES: Cn1cc([C@@H](O)[C@H](c2cnn(C)c2)N2Cc3ccc(-c4nnc(C(F)F)o4)cc3S2(=O)=O)cn1 (single isomer, unassigned) [Compound 95j-B-B]

pIC50 (HDAC6): 6.78
SMILES: COC(=O)N[C@@H]1CCCC[C@H]1N1Cc2ccc(-c3nnc(C(F)F)o3)cc2S1(=O)=O [Compound 92]

pIC50 (HDAC6): 6.83
SMILES: O=S1(=O)c2cc(-c3nnc(C(F)F)o3)ccc2CN1[C@@H](c1cnccn1)[C@H](O)c1cnccn1 (single isomer, unassigned) [Compound 99j-A]

pIC50 (HDAC6): 6.86
SMILES: O=S1(=O)c2cc(-c3nnc(C(F)F)o3)ccc2CN1[C@@H](c1cnccn1)[C@H](O)c1cnccn1 (single isomer, unassigned) [Compound 99j-B]

pIC50 (HDAC6): 6.86
SMILES: O=S1(=O)c2cc(-c3nnc(C(F)F)o3)ccc2CN1C(c1ccccn1)[C@H](O)c1ccccn1 (stereo partly drawn) [Compound 70i-A]

pIC50 (HDAC6): 6.88
SMILES: O=S1(=O)c2cc(-c3nnc(C(F)F)o3)ccc2CN1[C@@H](c1ccc(F)cn1)[C@H](O)c1ccc(F)cn1 (single isomer, unassigned) [Compound 88j-A]

pIC50 (HDAC6): 6.93
SMILES: Cn1cc([C@H]([C@@H](O)c2ccccc2)N2Cc3ccc(-c4nnc(C(F)F)o4)cc3S2(=O)=O)cn1 (single isomer, unassigned) [Compound 79i-A]

pIC50 (HDAC6): 6.95
SMILES: O=S1(=O)c2cc(-c3nnc(C(F)F)o3)ccc2CN1[C@@H](c1ccccn1)[C@H](O)c1ccc(F)cn1 (single isomer, unassigned) [Compound 84j-B]

pIC50 (HDAC6): 6.97
SMILES: O=S1(=O)c2cc(-c3nnc(C(F)F)o3)ccc2CN1[C@H](c1ncccn1)[C@@H](O)c1ncccn1 [Compound 103j-B]

pIC50 (HDAC6): 7.05
SMILES: O=C(NC1CC1)N[C@@H]1CCCC[C@H]1N1Cc2ccc(-c3nnc(C(F)F)o3)cc2S1(=O)=O [Compound 109]

pIC50 (HDAC6): 7.12
SMILES: Cn1cc([C@H]([C@@H](O)c2ccccc2)N2Cc3ccc(-c4nnc(C(F)F)o4)cc3S2(=O)=O)cn1 (single isomer, unassigned) [Compound 79i-B]

pIC50 (HDAC6): 7.13
SMILES: O=S1(=O)c2cc(-c3nnc(C(F)F)o3)ccc2CN1[C@@H](c1cnccn1)[C@H](O)c1cnccn1 (single isomer, unassigned) [Compound 99j-A-B]

pIC50 (HDAC6): 7.18
SMILES: Cn1cc([C@@H](O)[C@H](c2cnn(C)c2)N2Cc3ccc(-c4nnc(C(F)F)o4)cc3S2(=O)=O)cn1 (single isomer, unassigned) [Compound 95j-B-A]

pIC50 (HDAC6): 7.32
SMILES: O=C(N[C@@H]1CCCC[C@H]1N1Cc2ccc(-c3nnc(C(F)F)o3)cc2S1(=O)=O)C(F)(F)F [Compound 55]

pIC50 (HDAC6): 7.34
SMILES: O=C(N[C@@H]1CCCC[C@H]1N1Cc2ccc(-c3nnc(C(F)F)o3)cc2S1(=O)=O)C(F)(F)C(F)(F)F [Compound 3]

pIC50 (HDAC6): 7.52
SMILES: Cn1cc([C@@H](O)[C@H](c2cnn(C)c2)N2Cc3ccc(-c4nnc(C(F)F)o4)cc3S2(=O)=O)cn1 (single isomer, unassigned) [Compound 95j-B]

pIC50 (HDAC6): 7.64
SMILES: O=S1(=O)c2cc(-c3nnc(C(F)F)o3)ccc2CN1[C@@H](c1ccccn1)[C@H](O)c1ccc(F)cn1 (single isomer, unassigned) [Compound 84j-A-B]
